Experimental findings from a melting point compilation (Tetko et al.; mined from patent text by program, amines drawn as free bases though some values may be those of a salt) are described below.

Usually melting point stands for the temperature of the solid-liquid transition.

`COc1ccc(CCc2oc3ccc(Br)cc3c2CCl)cc1` returned a melting point of 70 to 75 °C.
As for `O=C1CCCN(C(=O)c2ccc([N+](=O)[O-])cc2)c2cccnc21`, the melting point lay within 188 to 190 °C.
`COC(=O)COc1cccc2c1c(C(=O)C(N)=O)c(C)n2Cc1ccccc1`: the melting point was in the range of 202 to 215 °C.
`O=C(NC(Cc1c[nH]c2ccccc12)C(=O)O)c1ccccc1Cl` (racemic) showed a melting point of 56 to 70 °C.
The result for `CC(C)(C)OC(=O)N1CCC(=Cc2ccc(F)cc2)CC1` reads 69 to 70 °C; that for `COC(=O)N1CCC(=O)C(C2(NO)OCCO2)C1` (configuration not stated), 162 to 165 °C; that for `N#Cc1cccc(C2C(=O)c3ccccc3C2=O)c1`, 179 to 182 °C.
In turn, `Cn1cnc2c1C(=O)N1CCN=C1N2Cc1ccc(Cl)cc1` returned a melting point of 182 to 184 °C.
On to `CC(C)(C)c1cc(-c2c[nH]c(=O)[nH]2)cc(C(C)(C)C)c1O`, for which the melting point was > 260 °C.
Compound `COc1ccccc1Oc1c(N=[N+]=[N-])nc(N2CCOCC2)nc1OCCOCc1ccccc1` yielded a melting point of 146 to 148 °C.
The result for `O=C(Oc1ccc(-c2cc3ccccc3[nH]2)cc1)c1ccccc1` reads 220 °C; that for `CCN1CCN(Cc2ccc3c(c2)-c2[nH]nc(-c4ccsc4)c2C3)CC1`, 221 to 223 °C.
In the case of `Cc1nc(CCn2cnc3c2c(=O)n(C)c(=O)n3C)no1`, the melting point was in the range of 112 to 114 °C.
Then `CCOC(=O)c1c(C(F)(F)F)nc(C(F)(F)Cl)c(C(=O)OC)c1Nc1ccccc1`, with 91 to 92 °C; and `COC(=O)[C@@H]1C[C@H](OC(=N)C(Cl)(Cl)Cl)C(=O)[C@H]2[C@@]1(C)CC[C@H]1C(=O)O[C@H](c3ccoc3)C[C@]21C`, with 120 to 123 °C.
Then `CC(CC(C)Oc1ccc(-c2ccc(C#N)cc2)cc1)Oc1ccc(-c2ccc(C#N)cc2)cc1` (configuration not stated), with 140 °C.
The result for `CN(C)CCN(C)C(=O)c1ccc2cc(-c3csc(N(C)S(=O)(=O)c4ccccc4)n3)c(=O)[nH]c2c1` reads 144 to 148 °C; that for `OCC1OC(n2cnc3c(NCc4ccc5ccc6cccc7ccc4c5c67)ncnc32)C(O)C1O` (configuration not stated), 144 °C; that for `O=C1NC(=O)c2c1c(-c1ccccc1Cl)cc1[nH]c3ccc(CCO)cc3c21`, 253 to 257 °C.
`O=C(O)c1ccc2c(c1)Sc1ccc(F)cc1C(=O)C2`: the melting point lay in the range of 289 to 291 °C.
Compound `O=C1NC(=O)C(Cc2ccc(OCCNc3ncccn3)cc2)S1` (configuration not stated) had a melting point of 173 °C.
`COc1ccc(C=O)cc1C` displayed a melting point of 120 °C.
Consider `O=C1CC(c2cccc3oc4c(c23)CCCC4)CC(=O)O1`, for which the melting point fell in the range of 139 to 140 °C.
Take `N#CC(C(=O)NCC(=O)O)C(=O)c1nn(-c2ccccc2)c2c1CSc1ccccc1-2` (configuration not stated): the melting point is 224 to 226 °C.
In the case of `O=C1CSCc2nc(-c3ccccc3)ccc21`, the melting point lay within 78 to 81 °C.
As to `O=C(Nc1ncnc2c1ncn2C[C@@H]1O[C@H](CO)[C@@H](O)[C@H]1O)c1ccccc1`, the melting point lay in the range of 85 to 90 °C.
In turn, `COCCOCOc1ccc2cc(C(=O)N(C)Cc3cccc(-c4ccc(Nc5cccc(C(=O)O)c5)cc4)c3)ccc2c1` registered a melting point of 60 °C.
The compound `NC(=O)N(O)C/C=C/c1cccc(C2=NOC(c3ccc(F)cc3)C2)c1` (configuration not stated) returned a melting point of 159 to 160 °C.
`Cc1cc(C(=O)O)c(C)c2c1SCCC2(C)C` gave a melting point of 166 to 167 °C.
`O=C(O)COc1ccc2c(-c3ccoc3)noc2c1Cl` showed a melting point of 225 to 227 °C.
Then `CS(=O)(=O)c1ccc(CC(=S)N2CCOCC2)cc1`, with 198 to 199 °C.
The result for `COC(=O)c1ccc(OC)c(NC(=N)c2ccc(F)cc2F)c1` reads 120 °C.
For `O=C(c1ccc(Cl)cc1)C(Cn1cncn1)c1ccc(Cl)cc1` (configuration not stated), the melting point lay within 126 to 128 °C.
`CC(C)=CC(=O)N(C)c1cccc(Br)c1` had a melting point of 92 to 94 °C.
In turn, `CC(C)OC(=O)C1(F)C(=O)NC(=O)NC1O/N=C\c1ccco1` (configuration not stated) yielded a melting point of 131 to 134 °C.
Compound `Cn1ccnc1Sc1ccc(Nc2c(C#N)cnc3cc(/C=C/CCN4CCOCC4)ccc23)cc1Cl` returned a melting point of 232 to 238 °C.
The result for `Oc1ccc2c(c1)COc1c-2cc2ccc(O)cc2c1-c1ccc(F)cc1` reads 229 to 232 °C; that for `O=C(O)Cc1c(C(=O)c2ccc(OC(F)(F)F)cc2)[nH]c2ccc(Cl)cc12`, 187 °C.
`CCOc1c(OC)c(OC)cc(C(=O)O)c1-c1c(C(=O)O)cc(OC)c2c1OCO2` yielded a melting point of 236 to 237 °C.
The result for `O=C(O)C1Cc2c(c(Cl)cc3c(-c4ccccc4)noc23)O1` (configuration not stated) reads 221 to 224 °C; that for `O=C(/C=C/c1cccc(Br)c1)NC1CC1`, 110 to 111 °C.
In turn, `C[C@@H](CN)CCC[C@@H](C)[C@H]1CC[C@H]2[C@@H]3CC=C4C[C@@H](O)CC[C@]4(C)[C@H]3CC[C@]12C` showed a melting point of 150 to 152 °C.
For `COCC1CN(C(=O)c2cc(OC)c(OC)c(OC)c2)CCN1C(=O)c1csc(-c2ccc(OC)c(OC)c2)n1` (configuration not stated), the melting point lay in the range of 149 to 151 °C.
The compound `CNC(=O)c1ccc(OCC(O)CNC(C)COc2ccc(O)c(C(N)=O)c2)cc1` (configuration not stated) had a melting point of 172 to 175 °C.
`NC(=S)c1ncn2c1[C@@H]1CCN1C(=O)c1ccccc1-2` showed a melting point of 227 to 230 °C.
`CNC(=O)N1CC(Sc2ccc(Cl)cc2)C1` returned a melting point of 161 to 162 °C.
`CNc1cc(S(=O)(=O)c2ccc(N)cc2)cc(Br)n1` had a melting point of 171 to 173 °C.
As for `CCOC(=O)C(=O)Cc1ncc([N+](=O)[O-])n1C`, the melting point stood at 141 °C.
Then `CCOc1nn(-c2ccc(C(F)(F)F)cn2)cc1CCCOc1nn(C)cc1CC(=O)O`, with 115 to 116 °C; and `CCCn1cc(C2(c3cccc(Br)c3)N=C(N)N(C)C2=O)cc1C(=O)CC` (configuration not stated), with 260 °C.
`COc1ccc(-c2c(Cl)ncnc2Cl)cc1` registered a melting point of 95 to 96 °C.
Then `O=c1[nH]cnc2c1ncn2[C@@H]1C[C@H](O)[C@@H](O)[C@H]1O` (racemic), with 198 to 201 °C.
For `CCOCc1cc2ccc(OC)cc2o/c1=N\c1ccccc1`, the melting point was 107 to 108 °C.
On to `CSC1C(=O)Nc2c(Nc3ccc(Cl)cc3)cccc21` (configuration not stated), for which the melting point fell in the range of 190 to 192 °C.
On to `CCOC(=O)C(C(=O)OCC)c1cccc2nnsc12`, for which the melting point fell in the range of 72 to 74 °C.
Then `CN(C)Cc1[nH]c2ccccc2c1Cn1ccnc1`, with 153 to 156 °C; and `Cc1ccc2c(c1)C=Cc1cc(C)ccc1C2c1cn(-c2ccnc(N(C)CC(=O)Nc3nc(CC(=O)O)cs3)n2)c(=O)[nH]c1=O`, with 210 °C; and `CCOc1c(CS(=O)(=O)C2=NOC(C)(CCl)C2)c(C(F)(F)F)nn1CC` (configuration not stated), with 67 to 69 °C.
The compound `COC(=S)c1cc(C)cc(C)c1` returned a melting point of 46 °C.
The result for `O=C(O)c1cc2nc(C(F)(F)F)ccc2n1Cc1cccc(F)c1` reads 254 to 255 °C; that for `CN1CCNC(=S)N1c1cc(Cl)cc(Cl)c1`, 240 to 241 °C.
In turn, `CCC1(CC)O[C@@H](C(=O)O)[C@H](c2ccccc2)N1C(=O)OC(C)(C)C` yielded a melting point of 185 °C.
Regarding `Cc1c(NC(=O)CC(C)(C)C)cc2c(c1C)OC(C)(C)C2(O)c1cccc(C(C)C)c1` (configuration not stated), the melting point was in the range of 136 to 137 °C.
For the compound `CN(CCCN1CCN(c2ccccc2C2CC2)CC1)c1nccc(C(N)=O)n1`, the melting point was 170 °C.
With `CCCCCCCCCCCCN(c1ccccc1)c1cccc2ccccc12`, the melting point was 116 °C.
Regarding `N#CC=Cc1ccc(C=Cc2ccc(C=CC#N)cc2)cc1`, the melting point fell in the range of 219 to 221 °C.
On to `CCCN(C(=O)c1cccc(-c2nc(=O)c3ccccc3s2)n1)C(=O)N(C)C`, for which the melting point was 191 to 192 °C.
`CC=CCn1c(C)c(C)c2cnnc(OCc3ccccc3)c21` showed a melting point of 81 to 84 °C.
`Cc1c(N2C(=O)C[C@H](O)[C@@H]2C)ccc(C#N)c1Cl` registered a melting point of 172 to 173 °C.
The compound `c1ccc(CNc2cc(N3CCCC3)nc(N3CCCC3)n2)cc1` returned a melting point of 70 to 72 °C.
`CC(=O)OCC1OC(n2ccnc2[N+](=O)[O-])CC1OC(C)=O` (configuration not stated) displayed a melting point of 155 °C.
The result for `COc1cc2c3c(n(C)c(=O)c2cc1OC)-c1cc(OCc2ccccc2)c(OCc2ccccc2)cc1C3=O` reads 238 to 240 °C; that for `O=C1Cc2cc(CCN3CCN(c4nsc5ccccc45)CC3)c(Cl)cc2N1`, 218 to 220 °C; that for `COc1cc(OC)c2c(-c3cc(F)cc(F)c3)coc2c1`, 102 to 103 °C.
Then `O=CN1CCN(C[C@H](O)COc2cccc3[nH]ccc23)CC1`, with 106 to 107 °C; and `COC(=O)c1c(C(=O)OC)c2n(c1C)Cc1ccccc1C2`, with 152 to 154 °C.
On to `CC(c1cc(Cl)ccc1O)c1cc(Br)ccc1O` (configuration not stated), for which the melting point worked out at 167 °C.
Compound `CNC(=O)C1CN(CCCC(c2ccc(F)cc2)c2ccc(F)cc2)CCN1CC(=O)Nc1c(C)cc(N)cc1C` (configuration not stated) came in with a melting point of 112 °C.
With `Cc1nc(-c2ncn3c2[C@@H]2CCCN2C(=O)c2c(Cl)cccc2-3)no1`, the melting point fell in the range of 205 to 206 °C.
Compound `CCOC(=O)/C=C/c1cc2cc(OCc3nc(-c4ccccc4)oc3C)ccc2o1` yielded a melting point of 120 to 121 °C.
For `COc1ccc(C2c3c(C)c(N4CCN(c5ccc(OC)cc5)CC4)c(C)c(C)c3OC2(C)C)cc1` (configuration not stated), the melting point lay within 205 to 207 °C.
Turning to `COC(=O)CCNc1c(C#N)cnn1-c1c(Cl)cc(C(F)(F)F)cc1Cl`, the melting point lay in the range of 171 to 173 °C.
For the compound `COc1cc([N+](=O)[O-])ccc1C(=O)N1CCCCC1`, the melting point stood at 104 °C.
In the case of `Cc1c([N+](=O)[O-])ccc2[nH]cc(CCCO)c12`, the melting point lay within 129 to 130 °C.
In turn, `CCCCCCn1c(=O)n(C2OC(CO)C(O)C2O)c2nc(N)[nH]c(=O)c21` (configuration not stated) had a melting point of 196 to 199 °C.
The result for `COc1cc2c(cc1OC)-c1c([N+](=O)[O-])sc(=N)n1CC2` reads 220 to 221 °C.
For the compound `CS(=O)(=O)c1ccc(C(CC2CCCC2)C(=O)Nc2nccs2)cc1S(C)(=O)=O` (configuration not stated), the melting point is 104 to 107 °C.
